This is an account of results in BindingDB's records for patent US11147816 (Genuv, 2021).

The target in experiment [1] is Dual specificity mitogen-activated protein kinase kinase 1 (Homo sapiens, UniProt Q02750). Nature of the experiment: MEK 1/2 inhibition.
The target in experiment [2] is Dual specificity mitogen-activated protein kinase kinase 2 (Homo sapiens, UniProt P36507). Nature of the experiment: MEK 1/2 inhibition.
Sequence of Dual specificity mitogen-activated protein kinase kinase 2 (P36507 whole entry): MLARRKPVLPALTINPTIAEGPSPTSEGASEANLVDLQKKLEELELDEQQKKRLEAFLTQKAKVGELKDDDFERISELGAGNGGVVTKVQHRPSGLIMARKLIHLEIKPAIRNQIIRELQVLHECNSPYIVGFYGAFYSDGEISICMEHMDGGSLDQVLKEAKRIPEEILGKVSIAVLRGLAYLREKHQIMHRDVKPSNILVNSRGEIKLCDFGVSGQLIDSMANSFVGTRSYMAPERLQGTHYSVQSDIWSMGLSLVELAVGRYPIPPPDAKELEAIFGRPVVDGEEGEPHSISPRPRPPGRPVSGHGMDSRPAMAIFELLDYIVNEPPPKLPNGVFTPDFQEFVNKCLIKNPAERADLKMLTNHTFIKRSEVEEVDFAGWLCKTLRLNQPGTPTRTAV

Sequence of Dual specificity mitogen-activated protein kinase kinase 1 (Q02750 whole entry): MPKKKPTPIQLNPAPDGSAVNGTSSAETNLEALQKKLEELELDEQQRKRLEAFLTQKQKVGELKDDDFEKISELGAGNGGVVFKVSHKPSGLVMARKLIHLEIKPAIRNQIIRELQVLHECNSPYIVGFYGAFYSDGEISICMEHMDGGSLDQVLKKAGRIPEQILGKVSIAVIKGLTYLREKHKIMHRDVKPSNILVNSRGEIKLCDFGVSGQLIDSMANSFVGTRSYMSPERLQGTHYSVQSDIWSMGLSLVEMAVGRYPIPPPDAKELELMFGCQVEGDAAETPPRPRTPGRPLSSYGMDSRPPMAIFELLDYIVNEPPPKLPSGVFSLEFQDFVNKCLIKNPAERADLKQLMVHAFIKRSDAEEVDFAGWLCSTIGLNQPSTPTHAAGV

Take `O=C(NOC[C@@H](O)CO)c1cc(Br)c(F)c(F)c1Nc1ccc(I)cc1F` [US11147816, PD318088]: half-maximal inhibition in experiment [1] (IC50) was put at 1.4 nM.

In experiment [2], `COc1cc(F)c(F)c(Nc2ccc(I)cc2F)c1NS(=O)(=O)C1(C[C@H](O)CO)CC1` [US11147816, Refametinib (RDEA119, Bay] returned a half-maximal inhibitory concentration (IC50) of 47 nM.
